Columns and labels:
[1] = system: BMDC; test: Anti-inflammatory activity against R848-stimulated mouse BMDC cells assessed as upregulation of IL-10 production at 5 uM treated for 24 hrs followed by R848 stimulation for 12 hrs by ELISA method (reference value: 100 %); assay type: functional; conditions: time 36 hrs
[2] = biological target: CDK8/Cyclin C (Homo sapiens) (UniProt P49336+P24863); test: Inhibition of recombinant full length His tagged human CDK8/Cyclin C expressed in Baculovirus at 200 nM incubated for 60 mins in presence of ATP by ADP-Glo kinase assay
[3] = biological target: CDK8/Cyclin C (Homo sapiens, UniProt P49336); test: Inhibition of recombinant full length His tagged human CDK8/Cyclin C expressed in Baculovirus incubated for 60 mins in presence of ATP by ADP-Glo kinase assay
[4] = Transcriptional activity of AP-1 in R848-stimulated mouse BMDC cells transfected with pAP1-luc assessed as ratio of AP-1 activity at 5 uM treated for 24 hrs followed by R848 stimulation for 4 hrs by luminescence based microplate reader analysis relative to control; assay type: functional; conditions: time 28 hrs

CDK8/Cyclin C, sequence (P49336 whole entry): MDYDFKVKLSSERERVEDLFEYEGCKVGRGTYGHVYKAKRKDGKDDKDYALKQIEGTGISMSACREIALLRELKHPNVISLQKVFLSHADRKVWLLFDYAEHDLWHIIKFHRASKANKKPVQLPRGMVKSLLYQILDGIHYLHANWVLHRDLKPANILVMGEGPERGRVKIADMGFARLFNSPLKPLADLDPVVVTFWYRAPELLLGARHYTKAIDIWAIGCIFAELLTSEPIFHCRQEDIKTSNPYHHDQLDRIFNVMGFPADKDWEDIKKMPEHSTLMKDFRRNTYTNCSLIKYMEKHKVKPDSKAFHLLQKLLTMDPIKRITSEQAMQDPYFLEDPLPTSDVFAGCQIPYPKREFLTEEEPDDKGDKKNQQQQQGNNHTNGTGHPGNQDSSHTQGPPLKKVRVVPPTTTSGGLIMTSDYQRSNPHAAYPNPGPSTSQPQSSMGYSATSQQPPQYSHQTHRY
CDK8/Cyclin C, sequence (P24863 whole entry, further chain): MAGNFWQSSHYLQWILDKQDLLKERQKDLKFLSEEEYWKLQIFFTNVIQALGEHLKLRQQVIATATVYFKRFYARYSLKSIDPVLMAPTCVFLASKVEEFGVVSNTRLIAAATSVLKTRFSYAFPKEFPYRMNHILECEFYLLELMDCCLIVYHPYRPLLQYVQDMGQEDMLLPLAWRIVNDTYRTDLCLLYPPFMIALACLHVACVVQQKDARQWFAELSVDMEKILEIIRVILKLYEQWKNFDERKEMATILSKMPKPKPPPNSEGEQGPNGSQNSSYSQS

Row | SMILES | inhibition [2] | IC50 [3] | Activity [1] | Ratio [4]
1 | COc1ccc(-c2cc(O)c3c(=O)cc(-c4ccccc4)oc3c2)cc1 | 47% | – | 76% | –
2 | O=c1cc(-c2ccccc2)oc2cc(-c3ccoc3)cc(O)c12 | 29% | – | 48% | –
3 | O=C(NC1CCCCC1)c1cncc(-c2ccc(C(=O)N3CCNCC3)cc2)c1 | 53% | – | 59% | –
4 | O=C(Nc1ccc(OC(F)(F)F)cc1)c1cncc(-c2ccc(C(=O)N3CCNCC3)cc2)c1 | 55% | – | 62% | –
5 | CCN1CCN(C(=O)c2ccc(-c3cc(O)c4c(=O)cc(-c5ccccc5)oc4c3)cc2)CC1 | 57% | – | 23% | –
6 | CC(=O)Nc1cccc(NC(=O)c2cc(O)cc(-c3ccc(C(=O)N4CCNCC4)cc3)c2)c1 | – | – | 12% | –
7 | CN(C)C(=O)c1ccc(-c2cc(O)c3c(=O)cc(-c4ccccc4)oc3c2)cc1 | 43% | – | 76% | –
8 | CC1CCc2nc(N)c(C#N)c(-c3cccnc3)c2C1 (stereo not given) | – | 211 nM | 66% | 2.5
9 | O=c1cc(-c2ccccc2)oc2cc(-c3cncnc3)cc(O)c12 | 35% | 548 nM | – | –
10 | O=c1cc(-c2ccccc2)oc2cc(-c3ccc(C(F)(F)F)cc3)cc(O)c12 | 28% | 2110 nM | – | 1.4
11 | CN(C)c1ccc(-c2cc(O)c3c(=O)cc(-c4ccccc4)oc3c2)cc1 | 62% | 177 nM | – | 1.4
12 | CN1CCN(C(=O)c2ccc(-c3cc(O)c4c(=O)cc(-c5ccccc5)oc4c3)cc2)CC1 | – | – | 19% | –
13 | Cc1noc(C)c1-c1cc(O)c2c(=O)cc(-c3ccccc3)oc2c1 | 12% | – | 30% | –
14 | CCCN1CCN(C(=O)c2ccc(-c3cc(O)c4c(=O)cc(-c5ccccc5)oc4c3)cc2)CC1 | 29% | – | 53% | –
15 | O=c1cc(-c2ccccc2)oc2cc(-c3ccncc3)cc(O)c12 | 24% | – | 73% | 1.2
16 | CN1CCN(c2ccc(-c3cc(O)c4c(=O)cc(-c5ccccc5)oc4c3)cc2)CC1 | 42% | – | 53% | 1.4
17 | CN(C)Cc1ccc(-c2cc(O)c3c(=O)cc(-c4ccccc4)oc3c2)cc1 | 47% | – | 82% | –
18 | O=c1cc(-c2ccccc2)oc2cc(-c3ccsc3)cc(O)c12 | 6% | – | – | –

Row | SMILES | inhibition [2] | IC50 [3] | Activity [1] | Ratio [4]
19 | CCc1ccc(-c2cc(O)c3c(=O)cc(-c4ccccc4)oc3c2)cc1 | 31% | – | – | –
20 | O=C(NCc1ccoc1)c1cncc(-c2ccc(C(=O)N3CCNCC3)cc2)c1 | 61% | – | 60% | –
21 | O=C(c1ccc(-c2cc(O)c3c(=O)cc(-c4ccccc4)oc3c2)cc1)N1CCOCC1 | 6% | – | 25% | –
22 | O=C(Nc1cccc(OC(F)(F)F)c1)c1cc(O)cc(-c2ccc(C(=O)N3CCNCC3)cc2)c1 | – | – | 10% | –
23 | CN1CCN(Cc2ccc(-c3cc(O)c4c(=O)cc(-c5ccccc5)oc4c3)cc2)CC1 | 25% | – | 36% | 1.1
24 | CC(=O)Nc1ccc(-c2cc(O)c3c(=O)cc(-c4ccccc4)oc3c2)cc1 | 54% | – | 49% | –
25 | O=C(NCCc1ccccc1)c1cncc(-c2ccc(C(=O)N3CCNCC3)cc2)c1 | 52% | – | 62% | –
26 | COc1cc(OC)c(-c2cc(O)c3c(=O)cc(-c4ccccc4)oc3c2)c(OC)c1 | 56% | 205 nM | – | –
27 | COc1cc(-c2cc(O)c3c(=O)cc(-c4ccccc4)oc3c2)cc(OC)c1OC | 27% | – | 78% | –
28 | O=C(NCc1ccccc1)c1cncc(-c2ccc(C(=O)N3CCNCC3)cc2)c1 | 62% | – | 72% | –
29 | O=C(c1ccc(-c2cc(O)c3c(=O)cc(-c4ccccc4)oc3c2)cc1)N1CCSCC1 | 19% | – | 46% | –
30 | O=C(Nc1ccc(C(F)(F)F)cc1)c1cncc(-c2ccc(C(=O)N3CCNCC3)cc2)c1 | 23% | – | 19% | –
31 | O=c1cc(-c2ccccc2)oc2cc(-c3ccc(CN4CCOCC4)cc3)cc(O)c12 | 43% | – | 53% | –
32 | O=c1cc(-c2ccccc2)oc2cc(-c3ccc(OC(F)(F)F)cc3)cc(O)c12 | 48% | – | 44% | –
33 | O=c1cc(-c2ccccc2)oc2cc(-c3ccc(Cl)cc3)cc(O)c12 | 31% | – | – | –
34 | CCN1CCN(c2ccc(-c3cc(O)c4c(=O)cc(-c5ccccc5)oc4c3)cc2)CC1 | 29% | – | 40% | –
35 | Cn1cc(-c2cc(O)c3c(=O)cc(-c4ccccc4)oc3c2)cn1 | 11% | – | 57% | –
36 | O=c1cc(-c2ccccc2)oc2cc(-c3ccc(N4CCOCC4)cc3)cc(O)c12 | 19% | – | 23% | –

More lines, main results first:

Row | inhibition [2] | IC50 [3] | SMILES | Activity [1] | Ratio [4]
37 | 19% | – | O=C(Nc1ccccc1F)c1cc(O)cc(-c2ccc(C(=O)N3CCNCC3)cc2)c1 | 42% | –
38 | 24% | 1140 nM | O=C(Nc1cccc(C(F)(F)F)c1)c1cncc(-c2ccc(C(=O)N3CCNCC3)cc2)c1 | 42% | 1.41
39 | 59% | – | Nc1cccc(NC(=O)c2cncc(-c3ccc(C(=O)N4CCNCC4)cc3)c2)c1 | 60% | –
40 | 42% | – | O=C(Nc1cccc(F)c1)c1cncc(-c2ccc(C(=O)N3CCNCC3)cc2)c1 | 53% | –
41 | 28% | – | CC(C)c1ccc(NC(=O)c2cc(O)cc(-c3ccc(C(=O)N4CCNCC4)cc3)c2)cc1 | 53% | –
42 | 35% | – | CC(C)(C)c1ccc(NC(=O)c2cc(O)cc(-c3ccc(C(=O)N4CCNCC4)cc3)c2)cc1 | 72% | –
43 | 60% | – | O=C(Nc1ccc(F)cc1)c1cncc(-c2ccc(C(=O)N3CCNCC3)cc2)c1 | 75% | –
44 | 77% | – | Cc1ccc(NC(=O)c2cncc(-c3ccc(C(=O)N4CCNCC4)cc3)c2)cc1 | 62% | –
45 | 20% | – | O=C(Nc1cccc(F)c1)c1cc(O)cc(-c2ccc(C(=O)N3CCNCC3)cc2)c1 | 26% | –
46 | 20% | – | Cc1cccc(NC(=O)c2cc(O)cc(-c3ccc(C(=O)N4CCNCC4)cc3)c2)c1 | 76% | –
47 | 44% | – | O=C(Nc1cccc(OC(F)(F)F)c1)c1cncc(-c2ccc(C(=O)N3CCNCC3)cc2)c1 | 48% | –
48 | 61% | – | COc1ccc(NC(=O)c2cc(O)cc(-c3ccc(C(=O)N4CCNCC4)cc3)c2)cc1 | 56% | –
49 | 53% | – | CC(C)c1ccccc1NC(=O)c1cc(O)cc(-c2ccc(C(=O)N3CCNCC3)cc2)c1 | 23% | –
50 | 58% | – | CC(C)c1ccccc1NC(=O)c1cncc(-c2ccc(C(=O)N3CCNCC3)cc2)c1 | 78% | –
51 | 38% | – | Cc1cc(C)c(NC(=O)c2cc(O)cc(-c3ccc(C(=O)N4CCNCC4)cc3)c2)c(C)c1 | 59% | –
52 | 54% | – | CC(C)(C)c1ccc(NC(=O)c2cncc(-c3ccc(C(=O)N4CCNCC4)cc3)c2)cc1 | 63% | –
53 | 60% | – | COc1ccccc1NC(=O)c1cncc(-c2ccc(C(=O)N3CCNCC3)cc2)c1 | 62% | –
54 | 65% | 134 nM | CC(=O)Nc1cccc(NC(=O)c2cncc(-c3ccc(C(=O)N4CCNCC4)cc3)c2)c1 | 78% | –

Row | inhibition [2] | IC50 [3] | SMILES | Activity [1] | Ratio [4]
55 | 21% | – | Cc1ccc(NC(=O)c2cc(O)cc(-c3ccc(C(=O)N4CCNCC4)cc3)c2)cc1 | 34% | –
56 | 45% | – | CC(=O)Nc1ccc(NC(=O)c2cc(O)cc(-c3ccc(C(=O)N4CCNCC4)cc3)c2)cc1 | 30% | –
57 | 55% | – | O=C(Nc1ccccc1F)c1cncc(-c2ccc(C(=O)N3CCNCC3)cc2)c1 | 62% | –
58 | 48% | – | CCc1ccc(NC(=O)c2cc(O)cc(-c3ccc(C(=O)N4CCNCC4)cc3)c2)cc1 | 72% | –
59 | 39% | – | Nc1cccc(NC(=O)c2cc(O)cc(-c3ccc(C(=O)N4CCNCC4)cc3)c2)c1 | 53% | –
60 | 36% | – | COc1cccc(NC(=O)c2cc(O)cc(-c3ccc(C(=O)N4CCNCC4)cc3)c2)c1 | 17% | –
61 | 47% | – | CC(=O)Nc1ccccc1NC(=O)c1cncc(-c2ccc(C(=O)N3CCNCC3)cc2)c1 | 29% | –
62 | 29% | – | CC(C)c1cccc(NC(=O)c2cc(O)cc(-c3ccc(C(=O)N4CCNCC4)cc3)c2)c1 | 62% | –
63 | 31% | – | Nc1ccc(NC(=O)c2cc(O)cc(-c3ccc(C(=O)N4CCNCC4)cc3)c2)cc1 | 20% | –
64 | 40% | – | O=C(Nc1ccc(C(F)(F)F)cc1)c1cc(O)cc(-c2ccc(C(=O)N3CCNCC3)cc2)c1 | 8% | –
65 | 15% | – | O=C(Nc1cccc(C(F)(F)F)c1)c1cc(O)cc(-c2ccc(C(=O)N3CCNCC3)cc2)c1 | 19% | –
66 | 47% | – | O=C(Nc1cccc(Cl)c1)c1cncc(-c2ccc(C(=O)N3CCNCC3)cc2)c1 | 39% | –
67 | 12% | – | O=C(Nc1ccc(F)cc1)c1cc(O)cc(-c2ccc(C(=O)N3CCNCC3)cc2)c1 | 42% | –
68 | 67% | 162 nM | O=C(Nc1ccccc1)c1cccc(-c2ccc(C(=O)N3CCNCC3)cc2)c1 | – | 1.7
69 | 5% | – | O=C(Nc1ccc(OC(F)(F)F)cc1)c1cc(O)cc(-c2ccc(C(=O)N3CCNCC3)cc2)c1 | 88% | –
70 | 64% | – | CC(C)c1cccc(NC(=O)c2cncc(-c3ccc(C(=O)N4CCNCC4)cc3)c2)c1 | – | –
71 | 62% | – | CC(C)c1ccc(NC(=O)c2cncc(-c3ccc(C(=O)N4CCNCC4)cc3)c2)cc1 | 61% | –

From ChEMBL document CHEMBL5154907, “Discovery and Anti-Inflammatory Activity Evaluation of a Novel CDK8 Inhibitor through Upregulation of IL-10 for the Treatment of Inflammatory Bowel Disease In Vivo” (J Med Chem, 2022)
